Source: patent US9180183B2, “Phospholipid drug analogs” (Telormedix SA, priority 2010, dated 2015)
Entries after “also recorded” stand apart in the source; their conditions may differ.

Key:
[1] = system: Escherichia coli WP2 uvrA; assay: Bacterial mutation assay, Escherichia coli; format: cell-based; details: absence or presence of S9 metabolism
Method: (§1) The five tester strains TA1535, TA1537, TA98, TA100 and WP2 uvrA were used. Experiments were performed both in the absence and presence of metabolic activation, using liver S9 fraction from rats pre-treated with phenobarbitone and betanaphthoflavone. SC12 was used as a solution in dimethylsulfoxide (DMSO).

human PBMCs = assay: IL-6 secretion in human PBMCs, two batches of Compound A and SC12; format: cell-based; details: 5 months storage in DMSO at 4° C.
Method: PBMCs were purified from two donors and plated into 96 well plates at 2×10^5 cells/well in RPMI media including human 2% heat inactivated AB serum, glutamine, Pen-strep and R-mercapto-ethanol. […] The conditioned media was removed for ELISA analyses for IL-6, and the EC50 value determined for each compound and each batch.
All compounds were tested in four concentrations (10-1-0, 1-0.01 micromolar).
Concentrations of IL-6 were determined by ELISA from R&D Systems using the Microsoft Excel software. The results were analyzed in Graph Pad Prism in order to prepare dose-response curves, and for determination of EC50 values.

PBMCs = assay: IL-6 and TNF-alpha secretion in PBMCs (ELISA), Model 2; format: cell-based, human; details: three donors
[2] = Heat stability of solid samples at 80° C. (HPLC); format: physicochemical; details: solid sample
Method: Solid samples of each compound were maintained at 80° C. and analyzed by HPLC.

CYP2E1 = CYP2E1 (Homo sapiens (Human), UniProt P05181); assay: Fluorescent High Throughput P450 assay CYP2E1; format: in vitro ADME
Sequence of CYP2E1 (P05181 whole entry, looked up): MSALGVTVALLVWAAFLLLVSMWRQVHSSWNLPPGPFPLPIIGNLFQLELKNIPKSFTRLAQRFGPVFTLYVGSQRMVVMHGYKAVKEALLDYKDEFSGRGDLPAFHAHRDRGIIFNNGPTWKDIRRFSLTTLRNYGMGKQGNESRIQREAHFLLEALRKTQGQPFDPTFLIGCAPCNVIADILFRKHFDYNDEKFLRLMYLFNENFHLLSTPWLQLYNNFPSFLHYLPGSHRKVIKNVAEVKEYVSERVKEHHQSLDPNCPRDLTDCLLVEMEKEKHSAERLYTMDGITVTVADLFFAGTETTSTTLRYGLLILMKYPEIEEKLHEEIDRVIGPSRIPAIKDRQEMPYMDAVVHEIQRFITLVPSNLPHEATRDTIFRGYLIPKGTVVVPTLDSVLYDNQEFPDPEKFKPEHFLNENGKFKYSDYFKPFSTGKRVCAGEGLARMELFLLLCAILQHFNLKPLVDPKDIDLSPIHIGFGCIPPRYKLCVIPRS
Method: (§2) Inhibition of the P450 isoforms was measured in specific assays using specific substrates that become fluorescent upon CYP metabolism. Compounds, dissolved in ACN (acetonitrile) (CYP2E1, CYP2C8, CYP2B6, CYP3A5) or DMSO (all remaining isoforms), were tested in duplicate (n=2) in concentration-response curves (eight concentrations) in a 96-well plate containing incubation/NADPH regenerating buffer. Specific isoenzymes and substrates were added and incubated at 37° C. Reactions were terminated at different times, depending on the assays, and plates read on a Fluoroskan Ascent at the appropriate emission/excitation wavelengths. Concentration-response curves performed in duplicate for known inhibitors for each isoenzyme were tested in every assay as positive control.

[3] = Plasma stability in human plasma (second experiment); details: up to 120 min
Method: Second experiment: Test compounds (5 mM in DMSO) were diluted at the final concentration of 250 μM with ACN-MeOH 1:1.
Human plasma (1.180 ml) was spiked with 20 μl of 250 μM solution of the compound (4.16 μM final concentration) and aliquots of 50 μl volume were taken at 0, 15, 30, 60, 120 min and 5 hrs, and immediately quenched with 200 μl of a solution of Verapamil 250 ng/ml (internal standard, I.S.) in ACN:MeOH 95:5. Samples were then centrifuged for 20 min at 3000 rpm at 10° C. and analyzed as reported below. […] The supernatant fractions were analyzed by LC/MS/MS. Zero-time incubations were used as 100% values.
Stability was calculated as percentage remaining of the area ratio compound/I.S. at each time point vs. area ratio compound/I.S. at time 0 min.

[4] = system: Salmonella typhimurium TA1535, TA1537, TA98, TA100; assay: Bacterial mutation assay, Salmonella typhimurium; format: cell-based; details: absence or presence of S9 metabolism
Method: as §1

CYP2C9 = CYP2C9 (Homo sapiens (Human), UniProt P11712); assay: Fluorescent High Throughput P450 assay CYP2C9; format: in vitro ADME
Sequence of CYP2C9 (P11712 whole entry, looked up): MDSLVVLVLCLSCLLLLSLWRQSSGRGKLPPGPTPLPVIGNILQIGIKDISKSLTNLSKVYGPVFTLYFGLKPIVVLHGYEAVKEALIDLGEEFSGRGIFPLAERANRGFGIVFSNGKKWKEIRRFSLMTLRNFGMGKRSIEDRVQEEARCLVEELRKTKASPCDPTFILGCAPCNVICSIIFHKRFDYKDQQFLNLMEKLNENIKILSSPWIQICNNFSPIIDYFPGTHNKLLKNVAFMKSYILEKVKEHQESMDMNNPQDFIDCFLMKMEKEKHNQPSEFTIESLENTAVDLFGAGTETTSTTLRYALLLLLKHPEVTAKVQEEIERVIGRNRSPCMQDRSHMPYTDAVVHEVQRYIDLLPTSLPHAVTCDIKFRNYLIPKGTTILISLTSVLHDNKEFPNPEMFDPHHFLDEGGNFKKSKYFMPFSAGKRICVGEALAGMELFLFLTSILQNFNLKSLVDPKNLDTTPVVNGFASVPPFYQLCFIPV
Method: as §2

CYP3A4 = CYP3A4 (Homo sapiens (Human), UniProt P08684); assay: Fluorescent High Throughput P450 assay CYP3A4; format: in vitro ADME
Sequence of CYP3A4 (P08684 whole entry, looked up): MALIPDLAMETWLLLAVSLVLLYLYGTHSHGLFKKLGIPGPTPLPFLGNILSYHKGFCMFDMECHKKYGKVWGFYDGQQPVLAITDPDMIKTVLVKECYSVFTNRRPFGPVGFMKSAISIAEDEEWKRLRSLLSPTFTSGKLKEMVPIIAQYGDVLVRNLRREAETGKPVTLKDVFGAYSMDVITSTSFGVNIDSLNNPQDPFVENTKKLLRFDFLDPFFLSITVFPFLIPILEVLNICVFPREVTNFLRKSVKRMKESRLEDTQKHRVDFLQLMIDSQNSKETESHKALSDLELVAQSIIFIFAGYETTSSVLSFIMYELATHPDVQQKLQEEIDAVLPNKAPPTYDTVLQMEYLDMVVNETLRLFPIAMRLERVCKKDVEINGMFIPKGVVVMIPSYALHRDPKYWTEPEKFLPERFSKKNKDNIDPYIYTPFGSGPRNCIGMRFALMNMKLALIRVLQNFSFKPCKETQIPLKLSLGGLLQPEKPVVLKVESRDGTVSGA
Method: as §2

[5] = system: Cutaneous Squamous Cell Carcinoma (SCC) cell lines SCL-I, SCL-II, SCC-12, SCC-13; assay: Proapoptotic and cytotoxic effects on cutaneous SCC cell lines (real-time cell analysis, microscopy); format: cell-based, human
Method: SCC cells are grown under standard conditions (10% FBS).
Time and dose dependency of effects on total cell numbers have been investigated by real-time cell analysis, which is based on continuous monitoring of electric conductance in microtiter wells (E-plates, Roche), which corresponds to the cell numbers. […] For these assays 4 cell lines should be used to obtain a representative overview on the effects on SCC cells.

HLA-DR+/CD20+ B cells = assay: FACS analysis of B cell activation in whole blood; format: cell-based, human; details: 24 hours; 2 and 10 uM; three donors
Method: The FACS staining was performed according to the manufacturer's instructions. Lysis of red blood cells was performed before FACS staining in order to minimize auto-florescence. To include as many B cells and DCs in the study as possible the FACS analyses were performed on 500,000 cells in total for each staining. […] The results of the individual analysis were present as Mean Fluorescence Intensity
The analysis of expression of the activation marker CD40 on B cells was made on double positive HLA-DR (MHC class II) (P4 gate) and CD20 cells (B cell marker) (P8 gate).

[6] = Solubility in organic solvents; format: physicochemical; details: especially in ACN
[7] = system: HLA-DR+/CD11c-/CD123+ pDCs; assay: FACS analysis of plasmacytoid DC activation in whole blood; format: cell-based, human; details: 24 hours; 0.1 and 0.5 uM; three donors
Method: A flow cytometric analysis was performed on whole blood from three donors after treatment with two compound concentrations for 24 h. The FACS analysis for donor 1 and donor 2 was made on another day than donor 3. The compound concentrations were as follows:
The FACS analysis was used to identify whether the test compounds could induce activation of B cells, and two different subsets of dendritic cells, namely the myeloid CD11c+/CD123− DCs and the plasmacytoid CD11c−/CD123+ DCs. The following markers were studied to identify the activation status of the different subsets:
The FACS staining was performed according to the manufacturer's instructions. Lysis of red blood cells was performed before FACS staining in order to minimize auto-florescence. To include as many B cells and DCs in the study as possible the FACS analyses were performed on 500,000 cells in total for each staining. A P1 gate was set only to include relevant cells on FSC vs. SSC (see FIGS. 12-15). The results of the individual analysis were present as Mean Fluorescence Intensity
The analysis of pDCs was based on HLA-DR+/CD11c−/CD123+ cells, thus all analyzed cells were included in the HLA-DR+ (P3) gate and CD11c−/CD123+ (Q1) gate. (FIGS. 13-15).

[8] = Single dose intravenous toxicity study in rats; format: in vivo, Sprague Dawley rat
Method: An additional group, similarly composed, received the vehicle alone and acted as a control. […] Clinical signs were limited to piloerection and reduced activity, observed on the day of dosing.
In the main phase, 5 male and 5 female animals were dosed at 90 mg/kg and observed for a period of 14 days. A second group, similarly constituted, received the vehicle alone and acted as control. […] In addition, one male and one female dosed at 90 mg/kg were found dead on Day 2 of the study. Twitches, ataxia, piloerection, reduced activity and hunched posture were the major signs observed in animals before death. […] Piloerection was observed up to Day 3 of the study. A second group, similarly composed, was dosed at 80 mg/kg.

[9] = Stability study of SC12 under storage conditions (HPLC); format: physicochemical
CYP3A5 = CYP3A5 (Homo sapiens (Human), UniProt P20815); assay: Fluorescent High Throughput P450 assay CYP3A5; format: in vitro ADME
Sequence of CYP3A5 (P20815 whole entry, looked up): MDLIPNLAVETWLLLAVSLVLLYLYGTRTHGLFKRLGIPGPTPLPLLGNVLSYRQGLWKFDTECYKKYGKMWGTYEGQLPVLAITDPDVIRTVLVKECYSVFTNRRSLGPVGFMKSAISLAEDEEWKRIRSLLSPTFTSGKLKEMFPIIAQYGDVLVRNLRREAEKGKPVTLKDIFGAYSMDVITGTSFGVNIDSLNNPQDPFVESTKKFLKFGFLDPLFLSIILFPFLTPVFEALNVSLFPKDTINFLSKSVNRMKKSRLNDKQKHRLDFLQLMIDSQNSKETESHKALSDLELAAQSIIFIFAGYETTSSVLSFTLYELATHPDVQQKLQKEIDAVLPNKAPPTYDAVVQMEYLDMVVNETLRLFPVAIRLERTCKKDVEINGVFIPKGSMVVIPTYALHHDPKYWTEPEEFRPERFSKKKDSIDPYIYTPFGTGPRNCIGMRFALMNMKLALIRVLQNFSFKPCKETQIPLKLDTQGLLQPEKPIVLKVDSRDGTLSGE
Method: as §2

[10] = toxicity test, 50.0-5000 micrograms/plate
[11] = solid, RT and light, t = 20 days
[12] = solid, external T and light, t = 20 days
[13] = solution in CHCl3, RT and light, t = 0
[14] = solution in CHCl3, RT and light, t = 20 days

CCCCCCCCCCCC(=O)OCC(COP(=O)(O)OCCNC(=O)c1ccc(Cn2c(=O)[nH]c3c(N)nc(OCCOC)nc32)cc1)OC(=O)CCCCCCCCCCC (stereo not drawn) [SC12]
toxicity to tester strains [1, 10]: No toxicity was observed | reverse mutation / revertant colonies ([1]; up to 5000 micrograms/plate): did not induce two-fold increases in the number of revertant colonies; also recorded: does not induce reverse mutation | activity after storage (in words) (human PBMCs): have not lost activity | induction of IL-6 and TNF-alpha secretion (in words) (PBMCs): most potent TLR7 agonists | HPLC purity ([2]; After 2 hrs at 80° C.): 90% HPLC | HPLC purity ([2]; After 22 hrs at 80° C.): 88% HPLC | HPLC purity ([2]; t = 0): 90% HPLC | inhibition of CYP2E1 (in words) (CYP2E1): moderate inhibition | stability classification [3]: stable | toxicity to tester strains [4, 10]: No toxicity was observed | reverse mutation / revertant colonies ([4]; up to 5000 micrograms/plate): did not induce two-fold increases in the number of revertant colonies; also recorded: does not induce reverse mutation | inhibition of CYP2C9 (in words) (CYP2C9): weak inhibition | inhibition of CYP3A4 (in words) (CYP3A4): moderate inhibition | morphological changes (microscopy) ([5]; SCC cells, time of treatment 3d, 120 microM): cell detachment, morphological changes and inhibition of proliferation | cell numbers (real-time cell analysis, electric conductance) ([5]; cutaneous SCC cell lines): reduced cell numbers | CD40 expression (MFI, in words) (HLA-DR+/CD20+ B cells): induced CD40 expression in donor 1 and donor 2 in all tested concentrations | solubility [6]: low solubility | CD80 expression in pDCs (MFI, in words) [7]: induces a slightly higher CD80 expression than compound A | CD86 expression in pDCs (MFI, in words) [7]: tendency to induce higher CD86 expression than compound A | mortality ([8]; 76 mg/kg i.v., preliminary phase): No mortality occurred | mortality and clinical signs ([8]; 80 mg/kg i.v., main phase): No mortality occurred and no clinical signs were recorded | clinical signs ([8]; 85 mg/kg i.v., preliminary phase): Piloerection | mortality and signs of toxicity ([8]; 90 mg/kg i.v., main phase): induced mortality or significant signs of toxicity | mortality ([8]; 90 mg/kg i.v., preliminary phase): No mortality occurred | mortality ([8]; 100 mg/kg i.v., preliminary phase): Both animals died at dosing | maximum tolerated dose ([8]; single intravenous administration, rat): 80 mg/kg | HPLC % at RRT = 1 (main peak) [9, 11]: RRT = 1: 87.8% | HPLC % of impurity at RRT = 0.88 [9, 11]: RRT = 0.88: 6.2% | HPLC % of impurity at RRT = 1.21 [9, 11]: RRT = 1.21: 4.8% | HPLC % at RRT = 1 (main peak) [9, 12]: RRT = 1: 84.0% | HPLC % of impurity at RRT = 0.88 [9, 12]: RRT = 0.88: 6.6% | HPLC % of impurity at RRT = 1.21 [9, 12]: RRT = 1.21: 7.1% | HPLC % at RRT = 1 (main peak) [9, 13]: RRT = 1: 90.3% | HPLC % of impurity at RRT = 0.46 [9, 13]: RRT = 0.46: 5.7% | HPLC % of impurity at RRT = 1.21 [9, 13]: RRT = 1.21: 0.9% | HPLC % at RRT = 1 (main peak) [9, 14]: RRT = 1: 88.0% | HPLC % of impurity at RRT = 0.88 [9, 14]: RRT = 0.88: 6.2% | HPLC % of impurity at RRT = 1.21 [9, 14]: RRT = 1.21: 5.0% | inhibition of CYP3A5 (in words) (CYP3A5): moderate inhibition
